# Patent US6905861B2, “D-aminoacylases, method for producing the same, and method for producing D-amino acids using the same” (Daicel Chemical Industries, Ltd., priority 1998, dated 2005)
# How the values were obtained:
# [1] = tested on: Hypomyces mycophilus IFO 6785 strain; assay: D-amino acid production from N-acetyl-D-amino acid by washed fungal cells; assay type: cell-based; details: Hypomyces mycophilus IFO 6785 cells; 0.1% substrate, Tris-HCl pH 7.5, 30° C., 24 hours
# Experimental: (§1) A platinum loopful of Hypomyces aurantius IFO 6847 strain, Hypomyces broomeanus IFO 9164 strain, Hypomyces rosellus IFO 6911 strain, Hypomyces chrysospermus IFO 6817 strain, Hypomyces sepulcralis IFO 9102 strain, Hypomyces subiculosus IFO 6892 strain, Hypomyces mycophilus ATCC 76474 or IFO 6785 strain, or Fusarium solani IFO 9974 or IFO 9975 strain was inoculated into 25 ml of YM medium (containing 0.3% yeast extract, 0.3% malt extract, 0.5% peptone, and 2.0% glucose, pH 6.0) in a 500-ml shouldered flask. The fungi were shake-cultured at 24° C. for 3 days. After culturing, a 5-ml aliquot of the culture medium was centrifuged in a refrigerated centrifuge to collect the fungal cells. The cells were washed with physiological saline solution (5 ml) and collected by centrifugation again. A reaction solution (containing 0.1% N-acetyl-D-amino acid shown in Table 1 below in Tris-HCl buffer, pH 7.5) was then added to the cells thus collected. The mixture was incubated in a 5-ml test tube with shaking at 30° C. for 24 hours.
# (§2) D-Amino acid thus produced was determined by high-performance liquid chromatography (column, CROWNPAK CR (Daicel Chemical); column temperature, 26° C.; cooled in ice for only valine; mobile phase, HClO4 aqueous solution, pH 2.0; flow rate, 1 ml/min; and detection, 200 nm).
# [2] = tested on: Hypomyces aurantius IFO 6847 strain; assay: as above; assay type: cell-based; details: Hypomyces aurantius IFO 6847 cells; 0.1% substrate, Tris-HCl pH 7.5, 30° C., 24 hours
# Experimental: as §1, §2
# [3] = tested on: Hypomyces chrysospermus IFO 6817 strain; assay: as above; assay type: cell-based; details: Hypomyces chrysospermus IFO 6817 cells; 0.1% substrate, Tris-HCl pH 7.5, 30° C., 24 hours
# Experimental: as §1, §2
# [4] = tested on: Hypomyces subiculosus IFO 6892 strain; assay: as above; assay type: cell-based; details: Hypomyces subiculosus IFO 6892 cells; 0.1% substrate, Tris-HCl pH 7.5, 30° C., 24 hours
# Experimental: as §1, §2
# [5] = tested on: Hypomyces mycophilus ATCC 76474; assay: as above; assay type: cell-based; details: Hypomyces mycophilus ATCC 76474 cells; 0.1% substrate, Tris-HCl pH 7.5, 30° C., 24 hours
# Experimental: as §1, §2
# Fusarium solani IFO 9974 = assay: as above; assay type: cell-based; details: Fusarium solani IFO 9974 cells; 0.1% substrate, Tris-HCl pH 7.5, 30° C., 24 hours
# Experimental: as §1, §2
# [6] = tested on: Hypomyces broomeanus IFO 9164 strain; assay: as above; assay type: cell-based; details: Hypomyces broomeanus IFO 9164 cells; 0.1% substrate, Tris-HCl pH 7.5, 30° C., 24 hours
# Experimental: as §1, §2
# [7] = tested on: Hypomyces rosellus IFO 6911 strain; assay: as above; assay type: cell-based; details: Hypomyces rosellus IFO 6911 cells; 0.1% substrate, Tris-HCl pH 7.5, 30° C., 24 hours
# Experimental: as §1, §2
# [8] = tested on: Fusarium solani IFO 9975 strain; assay: as above; assay type: cell-based; details: Fusarium solani IFO 9975 cells; 0.1% substrate, Tris-HCl pH 7.5, 30° C., 24 hours
# Experimental: as §1, §2
# [9] = tested on: Hypomyces sepulcralis IFO 9102 strain; assay: as above; assay type: cell-based; details: Hypomyces sepulcralis IFO 9102 cells; 0.1% substrate, Tris-HCl pH 7.5, 30° C., 24 hours
# Experimental: as §1, §2
# [10] = tested on: D-aminoacylase (crude enzyme) of Auricularia auriculajudae IFO 5949; assay: Crude enzyme activity for each N-Ac-D-amino acid substrate; assay type: biochemical; details: Auricularia auriculajudae IFO 5949 crude enzyme; 20 mM substrate, 1 mM CoCl2, 50 mM phosphate buffer pH 7.0
# Experimental: Auricularia auriculajudae IFO 5949, Pythium aphanidermaatum IFO 7030, and Menisporopsis novaezelandiae IFO 9179 were each inoculated into sterilized media (100 ml each) (Czapek Dox Broth for IFO 5949, YM1 medium for IFO 7030, and POTATO DEXTROSE BROTH for IFO 9179) in 500-ml Erlenmeyer flasks. The fungi were cultured on a rotary shaker at 210 rpm at 24° C. for 7 days and collected by centrifugation using a […] centrifuge with a RPR10-2 rotor at 8,000 rpm (12,500×g) for 20 min. […] Disrupted cells thus obtained were centrifuged using a […] centrifuge with a RPR20-2 rotor at 17,500 rpm (38,000×g) for 30 min at 4° C. to obtain the supernatant as the crude enzyme. […] Figures in the table denote the amount (mM) of D-amino acids produced from the corresponding N-acetyl-D-amino acids. The D-aminoacylase activity was detected in all the strains tested, producing D-amino acid from the corresponding N-acetyl-D-amino acid.
# D-aminoacylase [11] = assay: Substrate specificity of purified D-aminoacylase (TNBS method); assay type: biochemical, Hypomyces mycophilus IFO 6785; details: for percentage of the specific activity compared with that for N-acetyl-D-methionine taken as 100%, D-enantiomer / percentage of the specific activity compared with that for N-acetyl-D-methionine taken as 100%, L-enantiomer: 20 mM substrate, 50 mM Tris-HCl pH 7.5, 30° C., 20 min; for activity of the enzyme for the substrate (in words): summary of Table 5
# Experimental: The enzyme activity was assayed by determining the amount of amino acid produced using the TNBS method and the HPLC method. In the TMBS method, 100 mM Na2B4O7 (0.5 ml) was added to a sample solution containing amino acid (0.5 ml), 20 μl of 110 mM TNBS (trinitrobenzenesulfonic acid) was then added, and the resulting mixture was quickly stirred. After 5 min, 100 mM NaH2PO4 containing 1.5 mM Na2SO3 (2 ml) was added to the reaction mixture to terminate the color reaction, and the absorbance at 420 nm was measured. HPLC was performed by subjecting a sample solution containing amino acid to high-performance liquid chromatography using an ODS column (column, Wakosil II 5C18 (4.6 dia.×250 mm) (Wako Pure Chemical); eluent, CH3CN/50 mM KH2PO4. H3PO4 (pH 2.5)=2:8; detection, A280 nm; and flow rate, 1.0 ml/min). The retention times were 3.5 min for D-tryptophan and 9.8 min for N-acetyl-D-tryptophan. Using D-tryptophan as the assay standard, one unit (or U) of the enzyme was defined as the amount of the enzyme required to produce 1 μmol of D-tryptophan at 30° C. for 1 min.
# Substrate specificity of the enzyme was expressed as the percentage of the specific activity compared with that for N-acetyl-D-methionine taken as 100%. N-chloroacetyl-D-phenylalanine, N-acetyl-D-valine, N-acetyl-D-phenylalanine, N-acetyl-D-tryptophan, N-acetyl-D-leucine, N-acetyl-L-valine, N-acetyl-L-phenylalanine, N-acetyl-L-tryptophan, and N-acetyl-L-leucine substrates were used for the comparison. The enzyme reaction was performed in 50 mM Tris-HCl (pH 7.5) containing 1 µl of the enzyme solution and 20 mM of each substrate (total volume 1.0 ml) at 30° C. for 20 min, and terminated by adding 0.5 ml of a TCA reaction terminating solution according to Tsai et al. (consisting of 110 mM trichloroacetic acid, 220 mM sodium acetate, and 330 mM acetic acid). The enzyme activity was assayed by the TNBS method as described in Example 4(2).
# D-aminoacylase [12] = assay: Effects of various metal salts and reagents on residual enzyme activity; assay type: biochemical, Hypomyces mycophilus IFO 6785; details: for Relative activity (%): pH 9.5
# [13] = compound 1 mM, kept at 40° C. for 30 min, residual activity, no addition = 100
compound,measurement,setting,value
CC(=O)N[C@H](CC(C)C)C(=O)O [N-acetyl-D-leucine],D-amino acid produced from N-acetyl-D-amino acid,[1],0.55 mg/mL
same,D-amino acid produced from N-acetyl-D-amino acid,[2],0 mg/mL
same,D-amino acid produced from N-acetyl-D-amino acid,[3],1.05 mg/mL
same,D-amino acid produced from N-acetyl-D-amino acid,[4],0.10 mg/mL
same,D-amino acid produced from N-acetyl-D-amino acid,[5],0.11 mg/mL
same,D-amino acid produced from N-acetyl-D-amino acid,Fusarium solani IFO 9974,0.14 mg/mL
same,D-amino acid produced from N-acetyl-D-amino acid,[6],0 mg/mL
same,D-amino acid produced from N-acetyl-D-amino acid,[7],0.3 mg/mL
same,D-amino acid produced from N-acetyl-D-amino acid,[8],0.21 mg/mL
same,D-amino acid produced from N-acetyl-D-amino acid,[9],1.60 mg/mL
same,amount of D-amino acids produced from the corresponding N-acetyl-D-amino acids,[10],2.68 mM
same,"percentage of the specific activity compared with that for N-acetyl-D-methionine taken as 100%, D-enantiomer",D-aminoacylase [11],77.5%
same,activity of the enzyme for the substrate (in words),D-aminoacylase [11],very active
CC(=O)N1CCC[C@@H]1C(=O)O [N-acetyl-D-proline],"percentage of the specific activity compared with that for N-acetyl-D-methionine taken as 100%, D-enantiomer",D-aminoacylase [11],0%
CC(=O)N[C@@H](CC(C)C)C(=O)O [N-acetyl-L-leucine],"percentage of the specific activity compared with that for N-acetyl-D-methionine taken as 100%, L-enantiomer",D-aminoacylase [11],0%
same,activity of the enzyme for the substrate (in words),D-aminoacylase [11],inactive
CSCC[C@H](NC(C)=O)C(=O)O [N-acetyl-L-methionine],"percentage of the specific activity compared with that for N-acetyl-D-methionine taken as 100%, L-enantiomer",D-aminoacylase [11],0%
same,activity of the enzyme for the substrate (in words),D-aminoacylase [11],inactive
CC(=O)N[C@@H](Cc1ccccc1)C(=O)O [N-acetyl-L-phenylalanine],"percentage of the specific activity compared with that for N-acetyl-D-methionine taken as 100%, L-enantiomer",D-aminoacylase [11],0%
same,activity of the enzyme for the substrate (in words),D-aminoacylase [11],inactive
CC(=O)N[C@@H](Cc1c[nH]c2ccccc12)C(=O)O [N-acetyl-L-tryptophan],"percentage of the specific activity compared with that for N-acetyl-D-methionine taken as 100%, L-enantiomer",D-aminoacylase [11],0%
same,activity of the enzyme for the substrate (in words),D-aminoacylase [11],inactive
CC(=O)N[C@H](C(=O)O)C(C)C [N-acetyl-L-valine],"percentage of the specific activity compared with that for N-acetyl-D-methionine taken as 100%, L-enantiomer",D-aminoacylase [11],0%
same,activity of the enzyme for the substrate (in words),D-aminoacylase [11],inactive
O=C(N[C@H](Cc1ccccc1)C(=O)O)c1ccccc1 [N-benzoyl-D-phenylalanine],"percentage of the specific activity compared with that for N-acetyl-D-methionine taken as 100%, D-enantiomer",D-aminoacylase [11],0%
O=C(CCl)N[C@H](Cc1ccccc1)C(=O)O [N-chloroacetyl-D-phenylalanine],"percentage of the specific activity compared with that for N-acetyl-D-methionine taken as 100%, D-enantiomer",D-aminoacylase [11],708%
same,activity of the enzyme for the substrate (in words),D-aminoacylase [11],especially active
CCN1C(=O)C=CC1=O [N-ethylmaleimide],Relative activity (%),D-aminoacylase [12]; [13],15.2%
[Cl][Ni][Cl] [NiCl2],Relative activity (%),D-aminoacylase [12],57.7%
O=C(O)c1cc[c]([Hg][Cl])cc1 [P-Chloromercuribenzoic acid],Relative activity (%),"D-aminoacylase [12]; compound 0.5 mM, kept at 40° C. for 30 min, residual activity, no addition = 100",99.6%
"O=S(=O)(F)Cc1ccccc1 [PMSF, phenyl methyl sulfonyl fluoride]",Relative activity (%),D-aminoacylase [12],94.2%
[Cl-].[Cl-].[Zn+2] [ZnCl2],Relative activity (%),D-aminoacylase [12],26.2%
O=S(=O)([O-])[O-].[Zn+2] [ZnSO4],Relative activity (%),D-aminoacylase [12]; [13],11.6%
[Zn+2] [Zn^2+],effect on the enzyme (in words),D-aminoacylase [12]; summary of Tables 6 and 7,inhibited
c1cnc2c(c1)ccc1cccnc12 [o-Phenanthroline],Relative activity (%),D-aminoacylase [12]; [13],78.8%
Penicillin,"percentage of the specific activity compared with that for N-acetyl-D-methionine taken as 100%, D-enantiomer",D-aminoacylase [11],0%
